Reference: ChEMBL document CHEMBL3758085, “Synthesis and cytotoxicity of thieno[2,3-b]quinoline-2-carboxamide and cycloalkyl[b]thieno[3,2-e]pyridine-2-carboxamide derivatives” (Bioorg Med Chem, 2016)
Activity calls are given as the source filed them. The rule behind the calls is not given here.

Tests used:
[1] = Antiproliferative activity against human HCT116 cells assessed as cell growth at 1 uM incubated for 3 days by 3H-thymidine incorporation assay relative to control; assay type: functional; conditions: HCT-116, read-out: Activity
[2] = tested on: MDA-MB-468; test: Antiproliferative activity against human MDA-MB-468 cells assessed as cell growth at 1 uM incubated for 3 days by 3H-thymidine incorporation assay relative to control; assay type: functional; conditions: read-out: Activity
[3] = tested on: MDA-MB-231; test: Antiproliferative activity against human MDA-MB-231 cells assessed as cell growth at 1 uM incubated for 3 days by 3H-thymidine incorporation assay relative to control; assay type: functional; conditions: read-out: Activity
[4] = tested on: Escherichia coli; test: Antibacterial activity against Escherichia coli DH5[alpha] at 1 to 10 mg/ml incubated overnight by agar diffusion method; assay type: functional, organism-based
[5] = tested on: Pseudomonas aeruginosa; test: Antibacterial activity against Pseudomonas aeruginosa at 1 to 10 mg/ml incubated overnight by agar diffusion method; assay type: functional, organism-based
[6] = tested on: Staphylococcus aureus; test: Antibacterial activity against Staphylococcus aureus at 1 to 10 mg/ml incubated overnight by agar diffusion method; assay type: functional, organism-based
[7] = Antiproliferative activity against human HCT116 cells assessed as cell growth incubated for 3 days by 3H-thymidine incorporation assay relative to control; assay type: functional, cell-based; conditions: HCT-116
[8] = tested on: MDA-MB-468; test: Antiproliferative activity against human MDA-MB-468 cells assessed as cell growth incubated for 3 days by 3H-thymidine incorporation assay relative to control; assay type: functional, cell-based
[9] = tested on: MDA-MB-231; test: Antiproliferative activity against human MDA-MB-231 cells assessed as cell growth incubated for 3 days by 3H-thymidine incorporation assay relative to control; assay type: functional, cell-based
[10] = tested on: K562; test: Antiproliferative activity against human K562 cells assessed as cell growth incubated for 3 days by 3H-thymidine incorporation assay relative to control; assay type: functional, cell-based

Structure (SMILES)	growth at 1 µM [1]	growth at 1 µM [2]	growth at 1 µM [3]	Activity [4]	Activity [5]	Activity [6]	IC50 [7]	IC50 [8]	IC50 [9]	IC50 [10]
COc1cccc(NC(=O)c2sc3nc4c(cc3c2N)CCC4)c1	92%	63%	95%	inactive	inactive	inactive				
Cc1c(Cl)cccc1NC(=O)c1sc2nc3c(cc2c1N)CCCC3	3%	6%	15%	inactive	inactive	inactive	191 nM	134 nM	221 nM	153 nM
Nc1c(C(=O)Nc2ccccc2F)sc2nc3c(cc12)CCCCC3	15%	11%	46%				798 nM	528 nM	672 nM	575 nM
Nc1c(C(=O)Nc2ccccc2)sc2nc3c(cc12)CCCC3	5%	8%	22%				594 nM	407 nM	617 nM	526 nM
Cc1cccc(NC(=O)c2sc3nc4c(cc3c2N)CCCCCC4)c1C	6%	4%	3%				183 nM	83 nM	170 nM	83 nM
Cc1c(Br)cccc1NC(=O)c1sc2nc3c(cc2c1N)CCC3	5%	5%	16%				161 nM	79 nM	84 nM	83 nM
COc1cccc(NC(=O)c2sc3nc4c(cc3c2N)CCCCC4)c1	6%	3%	19%				601 nM	391 nM	524 nM	580 nM
Nc1c(C(=O)Nc2ccccc2F)sc2nc3c(cc12)CCCCCC3	5%	5%	24%				599 nM	372 nM	587 nM	562 nM
Cc1c(Br)cccc1NC(=O)c1sc2nc3c(cc2c1N)CCCCC3	8%	3%	12%				442 nM	199 nM	198 nM	223 nM
Cc1cccc(NC(=O)c2sc3nc4c(cc3c2N)CCCCC4)c1C	6%	4%	6%				204 nM	121 nM	198 nM	167 nM
Nc1c(C(=O)Nc2cccc3ccccc23)sc2nc3c(cc12)CCCC3	37%	8%	60%	inactive	inactive	inactive	720 nM	447 nM	854 nM	576 nM
Cc1cccc(NC(=O)c2sc3nc4c(cc3c2N)CCCC4)c1C	5%	3%	4%				199 nM	148 nM	204 nM	152 nM
Nc1c(C(=O)Nc2cccc(F)c2)sc2nc3c(cc12)CCCCC3	29%	10%	28%				543 nM	351 nM	448 nM	558 nM
Cc1c(Cl)cccc1NC(=O)c1sc2nc3c(cc2c1N)CCCCC3	10%	3%	13%				266 nM	160 nM	190 nM	210 nM
Nc1c(C(=O)Nc2ccccc2Cl)sc2nc3c(cc12)CCCC3	94%	95%	119%	inactive	inactive	inactive				
Nc1c(C(=O)Nc2cccc(Cl)c2)sc2nc3c(cc12)CCCC3	80%	58%	98%	inactive	inactive	inactive				
Cc1c(Br)cccc1NC(=O)c1sc2nc3c(cc2c1N)CCCC3	5%	3%	5%				207 nM	185 nM	233 nM	185 nM
Cc1c(Cl)cccc1NC(=O)c1sc2nc3c(cc2c1N)CCC3	3%	4%	11%				218 nM	546 nM	593 nM	197 nM
